“Also recorded” adds a separate entry of the source.
How the values were obtained:
MRGPRX2 = target: T1, MRGPRX2 (Homo sapiens, UniProt Q96LB1); assay: TRUPATH Gαi1 dissociation assay, LN229 cells expressing MRGPRX2; format: cell-based; parameters: expressed in transfected cells; host or cells: LN229 human glioblastoma cells; plasmid pLXSN-MRGPRX2 (Addgene #213960); settings: 100 nM, preincubation
T1 sequence (Q96LB1 1-330): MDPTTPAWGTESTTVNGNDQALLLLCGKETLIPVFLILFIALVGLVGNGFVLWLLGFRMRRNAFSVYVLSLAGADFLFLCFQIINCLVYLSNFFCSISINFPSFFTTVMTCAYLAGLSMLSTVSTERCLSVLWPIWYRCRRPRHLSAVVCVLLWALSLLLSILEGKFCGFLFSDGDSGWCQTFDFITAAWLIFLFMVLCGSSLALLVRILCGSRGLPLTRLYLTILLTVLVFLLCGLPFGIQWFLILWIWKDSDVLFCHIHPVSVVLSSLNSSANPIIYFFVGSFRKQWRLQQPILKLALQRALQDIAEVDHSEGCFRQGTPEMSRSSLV
Description: Fig. 3 Biological characterization of PSB-172656. a Selectivity of PSB-172656 (100 nM) for MRGPRX2 over MRGPRX1, MRGPRX3, and MRGPRX4 measured in β-arrestin assays utilizing β-arrestin-CHO cells with recombinant expression of the respective receptor. MRGPRX1 was activated by BAM-22P (8.5 µM),[19] MRGPRX2 was activated by CST-14 (1 µM), MRGPRX3 was activated by PSB-20294 (10 µM), MRGPRX4 was activated by PSB-18061 (2.6 µM).[44] Data represent mean values ± SEM of 3-4 biological replicates, performed in duplicates. […] Data are means ± SEM of 3 biological replicates, in duplicates. Statistical significance was determined by one-way ANOVA (Tukey’s multiple comparison) test (ns P > 0.05). […] Data are means ± SEM of 3 biological replicates, performed in duplicates. e Shift assay to determine inhibition type of PSB-172656 versus CST-14. […] Extrapolated data were not used for analysis but only shown for a comprehensive view. f Schild plot for the effect of PSB-172656 on the concentration-response curves for CST-14. […]
To further investigate PSB-172656 signaling, direct activation of the relevant G protein subunits, Gαq and Gαi1,[32] was studied. This was assessed using G protein dissociation assays and LN229 cells stably overexpressing MRGPRX2 while transiently expressing the investigated G protein (Fig. 3c, d).[47]

[1] = test system: C48/80-induced hind paw edema; assay: Local allergic reaction (hind paw edema); format: in vivo, mouse; settings: 50 mg/kg b.w., i.p.; C48/80 20 µL of 30 µg/mL into right hind paw; listed as PSB-172656
Description: PSB-172656 was further investigated in a mouse model of skin inflammation,[54] determining its effects on C48/80-induced hind paw edema. […] These findings indicate a strong anti-inflammatory effect of the MRGPRX2/B2 antagonist in this mouse model. Mice were given the antagonist PSB-172656 intraperitoneally at a dose of 50 mg/kg b.w. or vehicle (2% DMSO). The volume of the paws (both right (test) and left (control)) was measured using a plethysmometer (7140, UgoBasile, Italy). After 30 min, 20 µL of C48/80 (30 µg/mL) were injected into the right paw and 20 µL of 0.9% NaCl into the left paw. After 15 min, paw thickness was measured again. Mice were then killed by dislocation of cervical vertebrae. The mouse model has been described previously.[54],[69]

inhibition of CST-14-induced Gαi1 dissociation (MRGPRX2): completely inhibited
SMILES: CCc1c(C(C)C)[nH]c2nc3cc(F)c(F)cc3n2c1=O [Compound 24, 3-ethyl-7,8-difluoro-2-isopropylbenzo[4,5]imidazo [1,2-a] pyrimidin-4(1H)-one]
effect on C48/80-induced paw swelling [1]: significant decrease in paw swelling; also recorded: prevents or reduces edema formation
